Literature values as cited in patent US9044531B2, “Vascular closure device” (Cordis Corporation, priority 2007, dated 2015).

Test system: S. aureus
Details: measured in a suitable growth medium; Bhargava et al., American Journal of Infection Control, June 1996

Oc1cc(Cl)ccc1Oc1ccc(Cl)cc1Cl [2,4,4′-trichloro-2′-hydroxydiphenyl ether]
minimum inhibitory concentration (MIC) against S. aureus: 0.01 ppm
